Experimental data as given in ChEMBL document CHEMBL3044650, “Interaction studies of E. coli uracil phosphoribosyltransferase with 5-fluorouracil for potent anti cancer activity” (Med Chem Res, 2012).

Target: T1, Uracil phosphoribosyltransferase (Escherichia coli (strain K12), UniProt P0A8F0)
T1 sequence (P0A8F0 whole entry): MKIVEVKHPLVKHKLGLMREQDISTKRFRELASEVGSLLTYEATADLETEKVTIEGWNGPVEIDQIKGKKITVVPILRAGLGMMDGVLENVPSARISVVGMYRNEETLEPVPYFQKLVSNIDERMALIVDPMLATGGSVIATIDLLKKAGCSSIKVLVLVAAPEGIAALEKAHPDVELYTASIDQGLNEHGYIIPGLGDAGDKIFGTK
Experiment: Inhibition of Escherichia coli K-12 MTCC 1302 UPRT activity by spectrophotometry

O=c1[nH]cc(F)c(=O)[nH]1 [FLUOROURACIL]
Ki: 13 µM
